Key:
[1] = tested on: bovine corneal endothelial cells; assay: in vitro wound closure, endothelial cell sheets contacted with contact lenses; assay type: cell-based
Procedure: (§1) Ocular cells were placed into a sterile plastic dish. This dish contained a 5-mm disk. The purpose of the disk was to prevent cells from growing in the covered area. When the disk was removed, a 5-mm “wound” or “hole” was present.
(§2) Contact lenses were then added to these cell sheets with the wounds. The lenses were left in contact with the cell sheets for a minimum of 30 minutes. Minimal medium was used to maintain the cell cultures. Cells were incubated at 35° C.±2° C. in 5% CO2. […] The contact lenses used were polymacon B, vifilcon A, and lidofilcon A hydrogel polymers.
(§3) The cell sheets were then viewed over time, and the diameter of the hole was measured.
(§4) The results are expressed in terms of closure of the in vitro wound over time.
(§5) Closure rates were calculated by direct measurement of the diameter of the wound. Measurements were taken daily.
Endothelial Cells and Tissue.

[2] = tested on: rabbit corneal epithelial cells; assay: in vitro wound closure, epithelial cell sheets contacted with contact lenses; assay type: cell-based; settings: for healing: lens soaked in 10 ng/μL EGF
Procedure: as §1, §2, §3, §4
Epithelial Cells and Tissue. Epithelial (rabbit corneal epithelial cells) cells were seeded on a dish and contacted with control and EGF-containing contact lenses. […] At 72 hours, there was a 43% difference in the closure rate between the EGF-treated epithelial tissue and the controls. The hydrogel material that was used was vifilcon A, an ionic polymer with a water content of 55%.
as §5

[3] = tested on: New Zealand white rabbits, eyes abraded with a needle; assay: rabbit model, eyes abraded with a needle, medicated contact lens in right eye; assay type: in vivo
Procedure: New Zealand white rabbits were anesthetized, and then both eyes were abraded with a needle. A control contact lens was placed in the left eye, and a medicated contact lens was placed in the right eye of each rabbit for up to 4 hours prior to euthanasia. Control contact lenses (etafilcon A, an ionic lens with 58% water content) were washed with phosphate-buffered saline (PBS) prior to insertion. […] Rabbits were visually scored on a 0-4 scale (0 being the best and 4 being the worst) for corneal edema (which is a measure of wound healing), inflammation, and exudate production.

[4] = tested on: recurring epithelial defect; assay: human testing of medicated lens; assay type: in vivo; settings: polymacon B lens soaked in 400 ppb EGF for 24 hours; one human patient; one administration
Procedure: This lens was placed in a human patient suffering from a recurring epithelial defect that was not responsive to traditional medical treatments. […] Desirably treatment lasts for at least one hour. This type of injury is normally treated by the repeated introduction of eye drops, sometimes as often as every 4-5 minutes. A contact lens of the present invention, however, was able to produce a positive result with only one administration.

[5] = polymacon B lens soaked in 10 ng/μL EGF, 72 hours
[6] = vifilcon A lens soaked in 10 ng/μL EGF, 48 hours
[7] = vifilcon A lens soaked in 10 ng/μL EGF, 72 hours
[8] = contact lens, 400 ppb HGH soak, right eye

epidermal growth factor [EGF]
increase in the healing rate (wound closure rate) compared to controls ([1]; lidofilcon A lens soaked in 10 ng/μL EGF, 48 hours): 54%
difference in healing rate compared to controls ([1]; lidofilcon A lens soaked in 10 ng/μL EGF, 72 hours): 44%
difference in closure between treated and untreated groups [1, 5]: 62%
wound closed [1, 5]: 80%
difference in closure rate between EGF treated group and controls ([1]; vifilcon A lens soaked in 5 ng/μL EGF, 48 hours): 31%
tissue healed ([1]; vifilcon A lens soaked in 5 ng/μL EGF, 72 hours): 53%
difference in healing rates compared to a control [1, 6]: 73%
tissue healed [1, 7]: completely healed
healing ([2]; 48 hours): 14%
healing ([2]; 72 hours): 25%
closure rate difference between controls and EGF treated ([2]; vifilcon A lens soaked in 5.0 ng/μL EGF, 48 hours): 21%
difference in the closure rate ([2]; vifilcon A lens soaked in 5.0 ng/μL EGF, 72 hours): 21%
difference in the closure rate between EGF-treated and non-EGF treated cells [2, 6]: 25%
difference in the closure rate between EGF-treated and controls [2, 7]: 43%
difference in the healing rates compared to a wound not contacted with any lens ([2]; vifilcon A lens with EGF, 48 hours): 31%
wound healing compared to control eyes ([3]; etafilcon A lenses soaked in 400 ppb EGF, first two hours after treatment): healed wounds at an accelerated rate
toxicity in rabbits ([3]; etafilcon A lenses soaked in 400 ppb, 4 ppm or 10 ppm EGF): No toxicity was observed
clinical efficacy (wound healing) [4]: Clinical efficacy (i.e., wound healing) was observed

human growth hormone [HGH]
toxicity to the ocular tissue ([3]; contact lens, 400 ppb HGH soak): no toxicity was observed
inflammation compared to control eyes [3, 8]: reduction in inflammation
wound healing compared to control eyes [3, 8]: increased wound healing

Reference: US7618643B2, “Growth factor delivery system for the healing of wounds and the prevention of inflammation and disease” (DirectContact LLC, priority 2002, dated 2009)
